In patent US20190241569A1, “3-(ARYL OR HETEROARYL) METHYLENEINDOLIN-2-ONE DERIVATIVES AS INHIBITORS OF CANCER STEM CELL PATHWAY KINASES FOR THE TREATMENT OF CANCER” (Boston Biomedical, Inc., priority 2013, published 2019):

Key:
Assay type in all cases: cell-based
A549 = test: Bulk cancer cells, Cell Titer-Glo 72 hours (Test Example 2); details: Homo sapiens
Method: (§1) Tubes of 3× drug (60 uM in 500 uL complete media) were prepared from 5 mM stock solutions in DMSO. […] To treat cells, 50 uL of drug from the dilution plate was removed and added to the cell plates. […] Cells were harvested 72 hours after drug addition using Cell Titer-Glo (Promega) and luminescence measured on a plate reader.

ACHN = test: as above; details: Homo sapiens, ACHN, 72 h
Method: as §1

FaDu = test: as above; details: Homo sapiens
Method: as §1

FaDu CSC = test: Cancer stem cells, Cell Titer-Glo 72 hours (Test Example 3); details: Homo sapiens, FaDu, 72 h
A549 CSC = test: as above; details: Homo sapiens
ACHN CSC = test: as above; details: Homo sapiens, ACHN, 72 h

Cc1cc(C)c(/C=C2\C(=O)Nc3ccc(-c4ccc(O)cc4C)cc32)[nH]1 [Example 261]
IC50 (A549): 12.5 µM
IC50 (ACHN): 14.9 µM
IC50 (FaDu): 14.7 µM
IC50 (FaDu CSC): 14.4 µM
IC50 (A549 CSC): 36.8 µM
IC50 (ACHN CSC): 21.1 µM

CCN(CC)CCNC(=O)c1c(C)[nH]c(/C=C2\C(=O)Nc3ccc(-c4ccc(C)cn4)cc32)c1C [Example 184]
IC50 (A549): 6.51 µM
IC50 (ACHN): 2.92 µM
IC50 (FaDu): 3.05 µM
IC50 (FaDu CSC): 0.22 µM
IC50 (A549 CSC): 3.38 µM
IC50 (ACHN CSC): 1.16 µM

CCN(CC)CCNC(=O)c1c(C)[nH]c(/C=C2\C(=O)Nc3ccc(-c4cscc4C)cc32)c1C [Example 206]
IC50 (A549): 2.01 µM
IC50 (ACHN): 2.68 µM
IC50 (FaDu): 3.74 µM
IC50 (FaDu CSC): 9.1 µM
IC50 (A549 CSC): 3.94 µM
IC50 (ACHN CSC): 0.48 µM

CCN(CC)CCNC(=O)c1c(C)[nH]c(/C=C2\C(=O)Nc3ccc(-c4ccc(-c5ccccc5)nc4)cc32)c1C [Example 194]
IC50 (A549): 2.3 µM
IC50 (ACHN): 7.41 µM
IC50 (FaDu): 4.92 µM
IC50 (FaDu CSC): 3.96 µM
IC50 (A549 CSC): 6.45 µM
IC50 (ACHN CSC): 0.63 µM

O=C1Nc2ccc(-c3csc(C4CCNCC4)n3)cc2/C1=C/c1cc2c([nH]1)CCCC2 [Example 157]
IC50 (A549): 9.39 µM
IC50 (ACHN): 18.8 µM
IC50 (FaDu): 21.1 µM
IC50 (FaDu CSC): 12 µM
IC50 (A549 CSC): 22.1 µM
IC50 (ACHN CSC): 2.68 µM

CCN(CC)CCNC(=O)c1c(C)[nH]c(/C=C2\C(=O)Nc3ccc(-c4ccc(C=O)cc4)cc32)c1C [Example 266]
IC50 (A549): 10.6 µM
IC50 (ACHN): 2.81 µM
IC50 (FaDu): 12.1 µM
IC50 (FaDu CSC): 7.51 µM
IC50 (A549 CSC): 5.84 µM
IC50 (ACHN CSC): 4.34 µM

CCN(CC)CCNC(=O)c1c(C)[nH]c(/C=C2\C(=O)Nc3ccc(-c4ncccn4)cc32)c1C [Example 182]
IC50 (A549): 15.4 µM
IC50 (ACHN): 3.5 µM
IC50 (FaDu): 6.02 µM
IC50 (FaDu CSC): 0.09 µM
IC50 (A549 CSC): 18 µM
IC50 (ACHN CSC): 1.15 µM

CCN(CC)CCNC(=O)c1c(C)[nH]c(/C=C2\C(=O)Nc3ccc(-c4cnc5cn[nH]c5c4)cc32)c1C [Example 181]
IC50 (A549): 3.24 µM
IC50 (ACHN): 2.74 µM
IC50 (FaDu): 1.49 µM
IC50 (FaDu CSC): 0.16 µM
IC50 (A549 CSC): 26.4 µM
IC50 (ACHN CSC): 10.8 µM

CCN(CC)CCNC(=O)c1c(C)[nH]c(/C=C2\C(=O)Nc3cc(-c4csc(-n5cccn5)n4)ccc32)c1C [Example 254]
IC50 (A549): 5.8 µM
IC50 (ACHN): 2.6 µM
IC50 (FaDu): 5.3 µM
IC50 (FaDu CSC): 0.78 µM
IC50 (A549 CSC): 2.93 µM
IC50 (ACHN CSC): 0.17 µM

CCN(CC)CCNC(=O)c1c(C)[nH]c(/C=C2\C(=O)Nc3ccc(-c4csc(-n5cccn5)n4)cc32)c1C [Example 195]
IC50 (A549): 3.71 µM
IC50 (ACHN): 7.88 µM
IC50 (FaDu): 4.68 µM
IC50 (FaDu CSC): 5.11 µM
IC50 (A549 CSC): 6.64 µM
IC50 (ACHN CSC): 0.62 µM

CCN(CC)CCNC(=O)c1c(C)[nH]c(/C=C2\C(=O)Nc3cc(-c4ccc(C(=O)c5ccccc5)cc4)ccc32)c1C [Example 264]
IC50 (A549): 3.65 µM
IC50 (ACHN): 4.11 µM
IC50 (FaDu): 4.46 µM
IC50 (FaDu CSC): 1.46 µM
IC50 (A549 CSC): 3.16 µM
IC50 (ACHN CSC): 1.63 µM

CCN(CC)CCNC(=O)c1c(C)[nH]c(/C=C2\C(=O)Nc3ccc(-c4cc(-c5ccccc5)ccn4)cc32)c1C [Example 198]
IC50 (A549): 1.5 µM
IC50 (ACHN): 2.41 µM
IC50 (FaDu): 2.58 µM
IC50 (FaDu CSC): 9.67 µM
IC50 (A549 CSC): 2 µM
IC50 (ACHN CSC): 0.9 µM

CCN(CC)CCNC(=O)c1c(C)[nH]c(/C=C2\C(=O)Nc3ccc(-c4ccncc4)cc32)c1C [Example 208]
IC50 (A549): 7.07 µM
IC50 (ACHN): 11.6 µM
IC50 (FaDu): 6.81 µM
IC50 (FaDu CSC): 16.2 µM
IC50 (A549 CSC): 9.85 µM
IC50 (ACHN CSC): 2.14 µM

CCN(CC)CCNC(=O)c1c(C)[nH]c(/C=C2\C(=O)Nc3ccc(-c4cnc5ccccc5c4)cc32)c1C [Example 204]
IC50 (A549): 3.85 µM
IC50 (ACHN): 6.39 µM
IC50 (FaDu): 4.59 µM
IC50 (FaDu CSC): 5.47 µM
IC50 (A549 CSC): 6.83 µM
IC50 (ACHN CSC): 0.62 µM

CCN(CC)CCNC(=O)c1c(C)[nH]c(/C=C2\C(=O)Nc3ccc(-c4ccc(C#N)c(F)c4)cc32)c1C [Example 269]
IC50 (A549): 14.5 µM
IC50 (ACHN): 13.3 µM
IC50 (FaDu): 14 µM
IC50 (FaDu CSC): 3.48 µM
IC50 (A549 CSC): 12 µM
IC50 (ACHN CSC): 1.71 µM

CCN(CC)CCNC(=O)c1c(C)[nH]c(/C=C2\C(=O)Nc3cc(-c4cccc5ncccc45)ccc32)c1C [Example 258]
IC50 (A549): 2.88 µM
IC50 (ACHN): 2.66 µM
IC50 (FaDu): 4.83 µM
IC50 (FaDu CSC): 2.64 µM
IC50 (A549 CSC): 8.61 µM
IC50 (ACHN CSC): 0.42 µM

CCN(CC)CCNC(=O)c1c(C)[nH]c(/C=C2\C(=O)Nc3ccc(-c4cccc(C#N)c4C)cc32)c1C [Example 205]
IC50 (A549): 2.8 µM
IC50 (ACHN): 5.23 µM
IC50 (FaDu): 4.27 µM
IC50 (FaDu CSC): 4.73 µM
IC50 (A549 CSC): 4.48 µM
IC50 (ACHN CSC): 0.57 µM

O=C1Nc2ccc(-c3csc(-c4ccccc4)n3)cc2/C1=C/c1ncc[nH]1 [Example 150]
IC50 (A549): 17.2 µM
IC50 (ACHN): 1.44 µM
IC50 (FaDu): 7.57 µM
IC50 (FaDu CSC): 2.5 µM
IC50 (A549 CSC): 2.31 µM
IC50 (ACHN CSC): 2.91 µM

Cc1cc(C)c(/C=C2\C(=O)Nc3ccc(-c4n[nH]c5ccccc45)cc32)[nH]1 [Example 231]
IC50 (A549): 6.45 µM
IC50 (ACHN): 8.73 µM
IC50 (FaDu): 4.43 µM
IC50 (FaDu CSC): 5.33 µM
IC50 (A549 CSC): 7.28 µM
IC50 (ACHN CSC): 3.1 µM

CCN(CC)CCNC(=O)c1c(C)[nH]c(/C=C2\C(=O)Nc3ccc(-c4cnc5ccccn45)cc32)c1C [Example 192]
IC50 (A549): 5.86 µM
IC50 (ACHN): 4.65 µM
IC50 (FaDu): 4.63 µM
IC50 (FaDu CSC): 17.6 µM
IC50 (A549 CSC): 17.2 µM
IC50 (ACHN CSC): 3.44 µM

CCN(CC)CCNC(=O)c1c(C)[nH]c(/C=C2\C(=O)Nc3ccc(-c4nccc5ccccc45)cc32)c1C [Example 187]
IC50 (A549): 3.18 µM
IC50 (ACHN): 5.05 µM
IC50 (FaDu): 2.13 µM
IC50 (FaDu CSC): 0.03 µM
IC50 (A549 CSC): 13.9 µM
IC50 (ACHN CSC): 0.71 µM

CCN(CC)CCNC(=O)c1c(C)[nH]c(/C=C2\C(=O)Nc3ccc(-c4ccc(OC)cc4C)cc32)c1C [Example 267]
IC50 (A549): 1.74 µM
IC50 (ACHN): 2.26 µM
IC50 (FaDu): 2.31 µM
IC50 (FaDu CSC): 1.4 µM
IC50 (A549 CSC): 4.61 µM
IC50 (ACHN CSC): 1.42 µM

CCN(CC)CCNC(=O)c1c(C)[nH]c(/C=C2\C(=O)Nc3ccc(-c4ccc5c(c4)CC(=O)N5)cc32)c1C [Example 270]
IC50 (A549): 19.7 µM
IC50 (ACHN): 18.9 µM
IC50 (FaDu): 25.4 µM
IC50 (FaDu CSC): 15.5 µM
IC50 (A549 CSC): 29.2 µM
IC50 (ACHN CSC): 20.8 µM

CCN(CC)CCNC(=O)c1c(C)[nH]c(/C=C2\C(=O)Nc3ccc(-c4cnsc4)cc32)c1C [Example 200]
IC50 (A549): 3.79 µM
IC50 (ACHN): 4.58 µM
IC50 (FaDu): 3.17 µM
IC50 (FaDu CSC): 3.42 µM
IC50 (A549 CSC): 6.66 µM
IC50 (ACHN CSC): 0.64 µM

CCN(CC)CCNC(=O)c1c(C)[nH]c(/C=C2\C(=O)Nc3ccc(-c4csc(-n5ccnc5)n4)cc32)c1C [Example 196]
IC50 (A549): 6.16 µM
IC50 (ACHN): 9.57 µM
IC50 (FaDu): 5.57 µM
IC50 (FaDu CSC): 21.7 µM
IC50 (A549 CSC): 18.8 µM
IC50 (ACHN CSC): 2.99 µM
